{
  "source": "patent US20240139193A1",
  "about": "“COMBINATION THERAPY OF KRAS INHIBITOR AND SHP2 INHIBITOR FOR TREATMENT OF CANCERS” (AMGEN INC., priority 2019, published 2024)",
  "key": {"KRAS p.G12C tumors [1]": {"system": "KRAS p.G12C tumors", "assay": "Preclinical anti-tumor efficacy of AMG 510", "assay_type": "in vivo"}, "KRAS p.G12C tumors [2]": {"system": "KRAS p.G12C tumors", "assay": "AMG 510 treatment in immune-competent mice", "assay_type": "in vivo"}, "KRAS p.G12C models": {"system": "KRAS p.G12C models", "conditions": "preclinical KRAS p.G12C models; cited from earlier work"}},
  "data": [
    {"compound": "C=CC(=O)N1CCN(c2nc(=O)n(-c3c(C)ccnc3C(C)C)c3nc(-c4c(O)cccc4F)c(F)cc23)[C@@H](C)C1", "note": "[Compound A, 4-((S)-4-acryloyl-2-methylpiperazin-1-yl)-6-fluoro-7-(2-fluoro-6-hydroxyphenyl)-1-(2-isopropyl-4-methylpyridin-3-yl)pyrido[2,3-d]pyrimidin-2(1H)-one]", "values": [
      {"measurement": "anti-tumor efficacy of chemotherapy and targeted agents in combination", "setting": "KRAS p.G12C tumors [1]", "result": "significantly improved"},
      {"measurement": "outcome in combination with immune checkpoint inhibition", "setting": "KRAS p.G12C tumors [2]", "result": "durable cures"}
    ]},
    {"compound": "C=CC(=O)N1CCN(c2ncnc3c(F)c(-c4c(O)cccc4F)c(Cl)cc23)CC1", "note": "[ARS-1620]", "values": [
      {"measurement": "in vivo efficacy", "setting": "KRAS p.G12C models", "result": "demonstrates in vivo efficacy"}
    ]}
  ]
}
